This is an account of results in patent US8216974B2, “Fluorine-containing organosulfur compound and pesticidal composition comprising the same” (Sumitomo Chemical Company, Limited, priority 2007, dated 2012).

The test system of one assay is brown rice planthopper. Briefly: Test Example 6: foliar spray on rice plants versus comparative compound, brown rice planthopper. Format: in vivo, Nilaparvata lugens. Conditions: 175 ppm, sprayed 20 ml/cup on rice plants; 30 first-instar larvae released; counted after 6 days at 25° C. Here is the method: In this Test Example, as a comparative compound, a compound disclosed in JP-A 2005-179321 (Compound No. 37 in Table 2) and represented by the formula:
[drawing 112] (hereinafter, referred to as the comparative compound (1)) was used.
Each formulation of the present compound (6) and the comparative compound (1) was obtained according to Formulation Example 15. The formulation was diluted so that the active ingredient concentration was 175 ppm to obtain a test solution.
At the same time, 50 g of culture soil, Bonsol No. 2 (manufactured by Sumitomo Chemical Co., Ltd.) was put into a polyethylene cup, and 10 to 15 seeds of rice were planted therein. The rice plants were grown until the second foliage leaf was developed, and then cut so as to have the same height of 5 cm. The test solution was sprayed on the rice plants in an amount of 20 ml/cup. After the test solution sprayed on the rice plants was dried, the rice plants were placed in a plastic cup for the purpose of preventing test worms from escaping. Thirty first-instar larvae of brown rice planthopper were released into the cup, and the cup was sealed with a lid. Then the cup was placed in a greenhouse at 25° C. for 6 days. Then, the number of parasitic brown rice planthoppers on the rice plants was examined.

The next assay concerns Blattalla germanica. In words: Test Example 4: filter paper with sucrose bait, Blattalla germanica. Format: in vivo. Conditions: 500 ppm, 0.7 ml on filter paper; 2 male imagoes; after 6 days. How it is done:
(§1) A formulation of any one of the present compounds (1) to (10) obtained according to Formulation Example 15 was diluted with water so that the active ingredient concentration was 500 ppm to obtain a test solution.
A filter paper having a diameter of 5.5 cm was spread on the bottom of a polyethylene cup having a diameter of 5.5 cm and 0.7 ml of the test solution was added dropwise onto the filter paper. As a bait 30 mg of sucrose was uniformly placed on the filter paper. Into the polyethylene cup, 2 male imagoes of Blattalla germanica were released and the cup was sealed with a lid. After 6 days, the number of surviving Blattalla germanica was examined and the death rate of the pest was calculated.

The test system of the next assay is Culex pipiens pallens. Briefly: Test Example 5: larvae in treated water, Culex pipiens pallens. Format: in vivo. As to conditions: 24 h, active ingredient concentration 3.5 ppm in water, 20 last-instar larvae, one day after, read-out: pest death rate. How it is done: as §1
To 100 mL of ion-exchanged water, 0.7 ml of the test solution was added (active ingredient concentration: 3.5 ppm). Into the solution, 20 last-instar larvae of Culex pipiens pallens were released. One day after, the number of surviving Culex pipiens pallens was examined and the death rate of the pest was calculated.

As for `N#CC(SCCC(F)(F)F)c1ccc(Cl)cc1` (stereo not drawn) [comparative compound (1), reference compound], the “number of the parasitic pests” value in the assay with brown rice planthopper is recorded as not below 21.
Compound `NC(=O)C(F)(c1cc(F)c(F)c(F)c1)S(=O)(=O)CCC(F)(F)F` (stereo not drawn) [present compound (1), 2-fluoro-2-(3,3,3-trifluoropropylsulfonyl)-2-(3,4,5-trifluorophenyl)acetamide] returned a pest death rate in the assay on Blattalla germanica of 100%. For the same compound, the pest or weed control at 3.5 ppm in the assay with Culex pipiens pallens was not below 95%.
In the assay on Blattalla germanica, `CC(C(N)=O)(c1cc(F)c(F)c(F)c1)S(=O)(=O)CCC(F)(F)F` (stereo not drawn) [present compound (2), 2-(3,4,5-trifluorophenyl)-2-(3,3,3-trifluoropropylsulfonyl)propaneamide] came in with a pest death rate of 100%.
As to `NC(=O)C(F)(c1ccc(Cl)c(F)c1)S(=O)(=O)CCC(F)(F)F` (stereo not drawn) [present compound (3), 2-(4-chloro-3-fluorophenyl)-2-fluoro-2-(3,3,3-trifluoropropylsulfonyl)acetamide], the pest death rate in the assay on Blattalla germanica is recorded as 100%. Besides, the pest or weed control at 3.5 ppm in the assay on Culex pipiens pallens is not below 95%.
The compound `NC(=O)C(F)(c1ccc(Cl)cc1)S(=O)(=O)CCC(F)(F)F` (stereo not drawn) [present compound (4), 2-(4-chlorophenyl)-2-fluoro-2-(3,3,3-trifluoropropylsulfonyl)acetamide] returned a pest death rate in the assay on Blattalla germanica of 100%. Also, in the assay on Culex pipiens pallens, the pest or weed control at 3.5 ppm is not below 95%.
The matching figures for `NC(=O)C(F)(c1ccc(C(F)(F)F)cc1)S(=O)(=O)CCC(F)(F)F` (stereo not drawn) [present compound (5), 2-fluoro-2-(3,3,3-trifluoropropylsulfonyl)-2-(4-trifluoromethylphenyl)acetamide]: 100% and not below 95%.
Take `NC(=O)C(SCCC(F)(F)F)c1ccc(Cl)cc1` (stereo not drawn) [present compound (6), 2-(4-chlorophenyl)-2-(3,3,3-trifluoropropylsulfanyl)acetamide]: the “number of the parasitic pests” value in the assay on brown rice planthopper is listed as not above 3.
As to `NC(=O)C(c1ccc(Cl)cc1)S(=O)(=O)CCC(F)(F)F` (stereo not drawn) [present compound (7), 2-(4-chlorophenyl)-2-(3,3,3-trifluoropropylsulfonyl)acetamide], the pest or weed control at 3.5 ppm with Culex pipiens pallens was not below 10%.
Turning to `NC(=O)C(Cl)(Cc1cccc(C(F)(F)F)c1)S(=O)(=O)CCC(F)(F)F` (stereo not drawn) [present compound (9), 2-chloro-3-(3-trifluoromethylphenyl)-2-(3.3.3-trifluoropropylsulfonyl)propaneamide], in the assay on Blattalla germanica, the pest death rate is given as not below 50%. Further, the pest or weed control at 3.5 ppm in the assay with Culex pipiens pallens was not below 10%.
In the case of `NC(=O)C(Cl)(Cc1ccccc1C(F)(F)F)S(=O)(=O)CCC(F)(F)F` (stereo not drawn) [present compound (10), 2-chloro-3-(2-trifluoromethylphenyl)-2-(3,3,3-trifluoropropylsulfonyl)propaneamide], the pest or weed control at 3.5 ppm with Culex pipiens pallens is not below 95%.
